Measurements reported in US8389541B2, “Inhibitors of protein tyrosine kinase activity” (MethylGene Inc., priority 2007, dated 2013).

These compounds were tested against T1, VEGF receptor KDR (Homo sapiens, UniProt P35968) (assay: In vitro receptor tyrosine kinase assay (DELFIA), VEGF receptor KDR). Conditions: GST-VEGFR2 806-1356, 0.6 uM ATP; read-out: VEGFR IC50.
T1 construct: made in house; host or cells: Sf9 cells (Spodoptera frugiperda), baculovirus
Format: biochemical
Source text: In the case of VEGF receptor KDR a 1.6-kb cDNA corresponding to the catalytic domain of VEGFR2 or KDR (Genbank accession number AF035121 amino acid 806 to 1356) is cloned into the Pst I site of the pDEST20 Gateway vector (Invitrogen) for the production of a GST-tagged version of that enzyme.
The GST-VEGFR2806-1356 protein is expressed in Sf9 cells (Spodoptera frugiperda) upon infection with recombinant baculovirus construct.
The supernatant is loaded onto a GST-agarose column (Sigma) equilibrated with PBS pH 7.3. Following a four column volume (CV) wash with PBS pH 7.3+1% Triton X-100 and 4 CV wash with buffer B (50 mM Tris pH 8.0, 20% glycerol and 100 mM NaCl), bound proteins are step eluted with 5 CV of buffer B supplemented with 5 mM DTT and 15 mM glutathion. […] Final GST-VEGFR2806-1356 protein preparations concentrations are about 0.7 mg/ml with purity approximating 70%.

T1 sequence (P35968 806-1356): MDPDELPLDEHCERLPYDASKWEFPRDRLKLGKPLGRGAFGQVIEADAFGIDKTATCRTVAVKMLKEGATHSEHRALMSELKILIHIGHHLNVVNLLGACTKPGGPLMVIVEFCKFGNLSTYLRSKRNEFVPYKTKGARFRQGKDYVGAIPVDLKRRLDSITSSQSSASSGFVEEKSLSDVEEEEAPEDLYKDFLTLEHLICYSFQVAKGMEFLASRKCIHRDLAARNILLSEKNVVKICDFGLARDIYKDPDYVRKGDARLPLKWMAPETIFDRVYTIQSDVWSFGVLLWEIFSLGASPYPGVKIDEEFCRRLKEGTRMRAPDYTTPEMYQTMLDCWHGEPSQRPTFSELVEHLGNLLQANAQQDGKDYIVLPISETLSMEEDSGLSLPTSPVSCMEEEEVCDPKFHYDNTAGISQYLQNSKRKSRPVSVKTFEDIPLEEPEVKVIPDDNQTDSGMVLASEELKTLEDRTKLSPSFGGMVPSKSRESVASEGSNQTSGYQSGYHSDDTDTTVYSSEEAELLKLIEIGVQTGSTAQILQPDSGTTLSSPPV

Compound | IC50 [nM]
O=C(Cc1ccc(F)cc1)NC(=S)Nc1ccc(Oc2ccnc3cc(-c4ccc(CNC5CC5)cc4)sc23)c(F)c1 | < 250
O=C(Nc1ccccc1)C1(C(=O)Nc2ccc(Oc3ccnc4cc(-c5ccc(CNC6CC6)cc5)sc34)c(F)c2)CC1 | < 250
COCCNCc1cccc(-c2cc3nccc(Oc4ccc(NC(=S)NC(=O)Cc5ccc(F)cc5)cc4F)c3s2)c1 [drawing 296] | < 250

Continued, values first:

IC50 [nM] | Compound
< 250 | COCCNCCn1cc(-c2cc3nccc(Oc4ccc(NC(=O)C5(C(=O)Nc6ccccc6)CC5)cc4F)c3s2)cn1
< 250 | COCCNCCC(=O)N1CC=C(c2cc3nccc(Oc4ccc(NC(=O)CC(=O)N(C)c5ccccc5)cc4F)c3s2)CC1
< 250 | COC[C@H](C)NCc1cccc(-c2cc3nccc(Oc4ccc(NC(=S)NC(=O)Cc5ccc(F)cc5)cc4F)c3s2)c1 [drawing 297]

These compounds were tested on A549 cells (assay: Wound healing assay in A549 cells (HGF-stimulated)). Conditions: Homo sapiens, last dose that inhibited gap closing by more than 25%, 24 h, read-out: A549 WOUND_HEALING IC50.
Format: cell-based
Procedure: Wound healing assay in A549 cells. A549 cells (ATCC) are seeded in DMEM low glucose medium complemented with 10% FBS into 24-well plates at a density of 7.5×10^4 cells/well and grown to confluence (48 h). Inhibitors were added to the medium at a range of doses (0.00032-10 uM) for 3 h at which point a gap is introduced by scraping cells with a P1000 pipette tip. Cells are then stimulated to migrate by the addition of HGF (in the form of conditioned medium from 293T cells over-expressing the human HGF gene) and the culture is continued for 24 h. […] For the purpose of standardization, a control is carried on every assay plates.

Compound | IC50 [nM]
O=C(Cc1ccc(F)cc1)NC(=S)Nc1ccc(Oc2ccnc3cc(-c4ccc(CNC5CC5)cc4)sc23)c(F)c1 | 250 to 500
O=C(Nc1ccccc1)C1(C(=O)Nc2ccc(Oc3ccnc4cc(-c5ccc(CNC6CC6)cc5)sc34)c(F)c2)CC1 | 250 to 500
COCCNCc1cccc(-c2cc3nccc(Oc4ccc(NC(=S)NC(=O)Cc5ccc(F)cc5)cc4F)c3s2)c1 [drawing 296] | 250 to 500

Further lines, results first:

IC50 [nM] | Compound
< 250 | COCCNCCn1cc(-c2cc3nccc(Oc4ccc(NC(=O)C5(C(=O)Nc6ccccc6)CC5)cc4F)c3s2)cn1
250 to 500 | COCCNCCC(=O)N1CC=C(c2cc3nccc(Oc4ccc(NC(=O)CC(=O)N(C)c5ccccc5)cc4F)c3s2)CC1
250 to 500 | COC[C@H](C)NCc1cccc(-c2cc3nccc(Oc4ccc(NC(=S)NC(=O)Cc5ccc(F)cc5)cc4F)c3s2)c1 [drawing 297]

Each compound was assayed on DU145 cells (assay: Scatter assay in DU145 cells (HGF-stimulated)). Conditions: Homo sapiens, DU-145, last dose that created an inhibitory effect on scattering, 24 h, read-out: DU145 SCATT. INHIB IC50.
Format: cell-based
Procedure: Scatter assays in DU145. The scatter assay is performed as described previously (Miura H, Nishimura K, Tsujimura A, Matsumiya K, Matsumoto K, Nakamura T, et al. Effects of hepatocyte growth factor on E-cadherin-mediated cell-cell adhesion in DU145 prostate cancer cells. Urology 2001; 58(6):1064-9) for DU145 prostate carcinoma cells with the indicated modifications. In brief, DU145 cells (ATCC) are seeded in 24-well plates at a density of 7×10^3 cells/well in MEM medium complemented with 10% FBS and cultured for 48 h, to allow the formation of small compact colonies of cells. Inhibitors are subsequently added at a range of doses (0.00032-10 uM) for 3 h. Cells are then stimulated to migrate by the addition of HGF (in the form of conditioned medium from 293T cells over-expressing the human HGF gene) and the culture is continued for another 24 h. The IC50 values is defined as the last dose that created an inhibitory effect on scattering. For the purpose of standardization a control is carried on every test plates for the DU145 scattering assays.

Compound | IC50 [nM]
O=C(Cc1ccc(F)cc1)NC(=S)Nc1ccc(Oc2ccnc3cc(-c4ccc(CNC5CC5)cc4)sc23)c(F)c1 | 250 to 500
O=C(Nc1ccccc1)C1(C(=O)Nc2ccc(Oc3ccnc4cc(-c5ccc(CNC6CC6)cc5)sc34)c(F)c2)CC1 | < 250
COCCNCc1cccc(-c2cc3nccc(Oc4ccc(NC(=S)NC(=O)Cc5ccc(F)cc5)cc4F)c3s2)c1 [drawing 296] | 250 to 500

Next, values leading:

IC50 [nM] | Compound
< 250 | COCCNCCn1cc(-c2cc3nccc(Oc4ccc(NC(=O)C5(C(=O)Nc6ccccc6)CC5)cc4F)c3s2)cn1
< 250 | COCCNCCC(=O)N1CC=C(c2cc3nccc(Oc4ccc(NC(=O)CC(=O)N(C)c5ccccc5)cc4F)c3s2)CC1
< 250 | COC[C@H](C)NCc1cccc(-c2cc3nccc(Oc4ccc(NC(=S)NC(=O)Cc5ccc(F)cc5)cc4F)c3s2)c1 [drawing 297]

These compounds were tested against T2, c-Met (Homo sapiens, UniProt P08581) (assay: Inhibition of c-Met phosphorylation in MKN45 cells (direct ELISA)). Conditions: 3 h treatment, read-out: CMET ELISA IN MKN45 IC50.
T2 construct: endogenous in cells; host or cells: MKN45 gastric carcinoma cells
T2 sequence (P08581 25-1390): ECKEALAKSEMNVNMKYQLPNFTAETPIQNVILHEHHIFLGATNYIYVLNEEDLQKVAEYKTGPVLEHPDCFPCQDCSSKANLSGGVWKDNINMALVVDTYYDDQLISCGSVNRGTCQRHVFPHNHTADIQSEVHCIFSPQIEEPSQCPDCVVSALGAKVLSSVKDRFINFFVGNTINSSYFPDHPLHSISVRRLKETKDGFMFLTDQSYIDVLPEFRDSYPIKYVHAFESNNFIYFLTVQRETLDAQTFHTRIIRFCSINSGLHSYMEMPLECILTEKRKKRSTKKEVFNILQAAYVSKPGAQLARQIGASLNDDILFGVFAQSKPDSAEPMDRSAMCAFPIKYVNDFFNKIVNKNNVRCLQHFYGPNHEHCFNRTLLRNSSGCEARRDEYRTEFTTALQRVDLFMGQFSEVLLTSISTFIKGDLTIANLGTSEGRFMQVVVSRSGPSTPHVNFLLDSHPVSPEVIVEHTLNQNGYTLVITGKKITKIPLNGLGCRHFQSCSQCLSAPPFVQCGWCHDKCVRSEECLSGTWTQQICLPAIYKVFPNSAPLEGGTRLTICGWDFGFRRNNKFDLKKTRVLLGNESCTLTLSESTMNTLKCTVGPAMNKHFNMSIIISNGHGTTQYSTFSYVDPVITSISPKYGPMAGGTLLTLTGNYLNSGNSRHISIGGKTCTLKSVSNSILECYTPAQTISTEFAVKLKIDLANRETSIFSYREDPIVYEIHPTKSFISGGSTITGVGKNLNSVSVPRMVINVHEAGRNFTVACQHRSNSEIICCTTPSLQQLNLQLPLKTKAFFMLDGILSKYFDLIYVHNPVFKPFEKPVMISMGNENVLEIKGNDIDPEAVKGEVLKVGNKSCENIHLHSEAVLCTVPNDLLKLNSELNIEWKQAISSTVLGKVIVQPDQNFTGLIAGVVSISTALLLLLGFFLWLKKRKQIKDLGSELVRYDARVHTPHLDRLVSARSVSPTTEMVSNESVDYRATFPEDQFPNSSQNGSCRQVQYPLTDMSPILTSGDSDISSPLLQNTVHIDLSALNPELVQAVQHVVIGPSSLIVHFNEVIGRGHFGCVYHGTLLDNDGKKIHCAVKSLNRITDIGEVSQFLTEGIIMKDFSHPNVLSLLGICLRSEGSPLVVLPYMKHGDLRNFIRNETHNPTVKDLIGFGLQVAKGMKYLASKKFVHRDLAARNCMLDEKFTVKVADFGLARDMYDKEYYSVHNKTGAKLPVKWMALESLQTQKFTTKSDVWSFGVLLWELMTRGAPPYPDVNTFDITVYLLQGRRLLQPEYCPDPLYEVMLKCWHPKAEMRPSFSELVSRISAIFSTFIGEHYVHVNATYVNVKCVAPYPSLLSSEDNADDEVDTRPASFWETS
Format: cell-based
Source text: The following assay is used to determine inhibition of c-Met phosphorylation.
The c-Met receptor is expressed in numerous cancer cell lines derived from tumors of epithelial origin. In MKN45 gastric carcinoma cells the c-Met gene is amplified, resulting in several-fold overexpression of the receptor and its constitutive activation. For this reason constitutively high levels of ERK1/2 are also detected in these cells, independently of HGF-added stimulation (Smolen G A, Sordella R, Muir B, Mohapatra G, Barmettler A, Archibald H, et al. Amplification of MET may identify a subset of cancers with extreme sensitivity to the selective tyrosine kinase inhibitor PHA-665752. Proc Natl Acad Sci USA 2006). We have developed a sensitive method to follow c-Met phosphorylation in these cells. In previous studies with earlier generation c-Met inhibitors, we established that the IC50s for the inhibition of c-Met phosphorylation were identical using this novel ELISA approach and standard western blot procedure, with antibodies directed against the activating autocatalysis tyrosine residues of c-MET (Tyr Y1230-34-35).
Cell treatments: MKN45 cells are seeded into wells of 96-well plates at a density of 3×10^4 cells/well in RPMI medium supplemented with 10% FBS. HA-TPR-RON expressing 293T (clone 18) cells are seeded into wells of 96-well plates at a density of 3×10^4 cells/well in DMEM medium supplemented with 10% FBS. Cells are grown for 48 h prior to treatments with compounds of interest. Inhibitors are added to the medium in triplicate wells at the indicated doses. After 3 h of treatment, media is aspirated and cells are lysed by one freeze-thaw cycle in 50 μL/well hypotonic lysis buffer (25 mM HEPES pH 7.5, 10 mM NaCl with 1 mM 4-(2-aminoethyl)benzenesulfonyl fluoride hydrochloride, 200 μM sodium orthovanadate, 1 mM sodium fluoride, 10 μg/mL of leupeptin, 10 μg/mL of aprotinin/mL, 1 μg/mL of pepstatin and 50 μg/mL Na-p-tosyl-L-lysine chloromethyl ketone hydrochloride.
Detection of phosphorylated c-Met by direct ELISA: Lysate samples (5 μL) from wells of treatment plates are transferred to 80 μL of binding buffer (25 mM HEPES pH 7.5, 200 mM NaCl) in wells of high binding white polysterene 96-well plates (Corning). After an overnight protein binding incubation at 4° C., lysates are aspirated and wells are blocked for 1 h at 37° C. in TBST supplemented with 5% BSA. Plates are incubated with the primary antibodies anti-phospho-Tyrosine (Millipore, 4G10) diluted 1/15000 in TBST supplemented with 5% BSA for 1 h at room temperature. Plates are washed 3 times on a plate washer (SkanWasher, Molecular Devises), and incubated with the reporter antibody […] (Sigma) diluted 1/15000 in TBST supplemented with 5% BSA, for 1 h at room temperature. Plates are washed 3 times with TBST using on a plate washer and subsequently incubated with chemiluminescent substrate solution (ECL, Roche). Luminescence signal is captured on a Polar Star Optima apparatus (BMG LabTech).
Average values of the triplicate samples are used to prepare IC50 curves using a 4-parameter fit model. These curves are calculated using, for example, GraFit 5.0 software. For assay standardization purpose, an internal control is included on each experimental test plate.

Compound | IC50 [nM]
O=C(Cc1ccc(F)cc1)NC(=S)Nc1ccc(Oc2ccnc3cc(-c4ccc(CNC5CC5)cc4)sc23)c(F)c1 | < 250
O=C(Nc1ccccc1)C1(C(=O)Nc2ccc(Oc3ccnc4cc(-c5ccc(CNC6CC6)cc5)sc34)c(F)c2)CC1 | < 250
COCCNCc1cccc(-c2cc3nccc(Oc4ccc(NC(=S)NC(=O)Cc5ccc(F)cc5)cc4F)c3s2)c1 [drawing 296] | < 250

Continued, values first:

IC50 [nM] | Compound
< 250 | COCCNCCn1cc(-c2cc3nccc(Oc4ccc(NC(=O)C5(C(=O)Nc6ccccc6)CC5)cc4F)c3s2)cn1
< 250 | COCCNCCC(=O)N1CC=C(c2cc3nccc(Oc4ccc(NC(=O)CC(=O)N(C)c5ccccc5)cc4F)c3s2)CC1
< 250 | COC[C@H](C)NCc1cccc(-c2cc3nccc(Oc4ccc(NC(=S)NC(=O)Cc5ccc(F)cc5)cc4F)c3s2)c1 [drawing 297]

The compounds below were run against recombinant human c-Met/HGF receptor (Homo sapiens, UniProt P08581) (assay: In vitro receptor tyrosine kinase assay (DELFIA), c-Met/HGF receptor). Conditions: not given.
Chain of recombinant human c-Met/HGF receptor (P08581 1078-1337): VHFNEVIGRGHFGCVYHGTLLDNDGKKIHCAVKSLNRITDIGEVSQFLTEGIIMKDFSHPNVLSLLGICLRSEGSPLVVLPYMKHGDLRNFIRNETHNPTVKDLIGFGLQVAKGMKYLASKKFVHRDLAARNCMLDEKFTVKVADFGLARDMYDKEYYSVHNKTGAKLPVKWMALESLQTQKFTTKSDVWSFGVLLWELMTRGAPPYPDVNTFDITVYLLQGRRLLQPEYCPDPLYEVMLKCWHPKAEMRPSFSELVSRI

Compound | IC50 [nM]
O=C(Cc1ccc(F)cc1)NC(=S)Nc1ccc(Oc2ccnc3cc(-c4ccc(CNC5CC5)cc4)sc23)c(F)c1 | < 250
O=C(Nc1ccccc1)C1(C(=O)Nc2ccc(Oc3ccnc4cc(-c5ccc(CNC6CC6)cc5)sc34)c(F)c2)CC1 | < 250
COCCNCc1cccc(-c2cc3nccc(Oc4ccc(NC(=S)NC(=O)Cc5ccc(F)cc5)cc4F)c3s2)c1 [drawing 296] | < 250

Second part, the compound after the results:

IC50 [nM] | Compound
< 250 | COCCNCCn1cc(-c2cc3nccc(Oc4ccc(NC(=O)C5(C(=O)Nc6ccccc6)CC5)cc4F)c3s2)cn1
< 250 | COCCNCCC(=O)N1CC=C(c2cc3nccc(Oc4ccc(NC(=O)CC(=O)N(C)c5ccccc5)cc4F)c3s2)CC1
< 250 | COC[C@H](C)NCc1cccc(-c2cc3nccc(Oc4ccc(NC(=S)NC(=O)Cc5ccc(F)cc5)cc4F)c3s2)c1 [drawing 297]
